From patent publication US20230192661A1, “1, 4, 5, 6-TETRAHYDROPYRIMIDINE-2-AMINE DERIVATIVE” (UBE Corporation, priority 2020, published 2023)

Experiments:
[1] = Transcellular transport test using Caco2 cell; assay type: in vitro ADME; conditions: human, Caco-2; Caco2 monolayer, A-to-B, 10 μM compound, pH 7.4, 90 minutes
Protocol: Caco2 cells (purchased from ATCC) were cultured in DMEM medium (Thermo Fisher Scientific, Inc., 11965) containing 10% FBS (Thermo Fisher Scientific, Inc., 10082) and 1% penicillin/streptomycin/amphotericin B (Thermo Fisher Scientific, Inc., 15240). A transcellular transport test was carried out in accordance with MultiScreen Caco2 Drug Transport Assembly in a 96-well system (Application Note AN1727EN, MultiScreen Caco-2 Assay System, Merck) by partially modifying it. The Caco2 cells were inoculated at a cell density of 4×10^4 cells/well onto a micropore polycarbonate insert of a 96-well plate (Merck, Millcell-96 culture insert plate 0.4 μm pore size, well membrane area=0.11 cm^2, PSHT004S5) and cultured for 20 to 22 days, and the resulting monolayer was used in the transcellular transport test. The medium of the inoculated cells was replaced with a fresh one every 3 to 4 days.
Apical-to-basolateral (A-to-B) transport in the Caco2 cell monolayer membrane was performed by using HBSS (Thermo Fisher Scientific, Inc., 14025) medium (pH=7.4) containing 20 mM HEPES (Thermo Fisher Scientific, Inc., 15630), and adding HEPES-containing HBSS medium containing 10 μM compound (a 10 mM solution of the compound in DMSO was added at a 1000-fold dilution; final DMSO concentration: 0.1%) at 75 μL/well to the apical side and HEPES-containing HBSS medium supplemented with no compound at 250 μL/well to the basolateral side, followed by culture at 37° C. for 90 minutes. After culture, a 100 μL aliquot was collected from the basolateral side, and the concentration of a permeated compound was measured by LC-MS/MS under measurement conditions mentioned later. Papp (apparent permeability; cm/sec) was calculated from the determined concentration. Papp was determined according to the expression given below by calculating the slope (dA/dt; nmol/sec) of a straight line drawn between two points 0 minutes and zero amount of the compound in a graph plotted with an assay time (90 min) on the abscissa against the amount of the compound in the solution on the permeated side on the ordinate. As for an assay concentration, the concentration in the compound in the HEPES-containing HBSS medium containing the added compound was measured by UV-HPLC under measurement conditions mentioned later.
Papp (cm/sec)=C0×S×(dA/dt)
C0: assay concentration, S: plate membrane area=0.11 cm^2

[2] = tested on: TGF-β activation (phosphorylated SMAD3); assay: TGF-β activation inhibition test (inhibition of SMAD3 phosphorylation in TFK-1 cells); assay type: cell-based; conditions: 48 h, fibronectin-coated plate, cultured 2 days, read-out: IC50 (rate of inhibition of phosphorylated SMAD3)
Protocol: In Test Example 3, the inhibition of TGF-β activation by a compound was detected with the inhibition of SMAD3 phosphorylation as an index. In Test Example 3, the same reagents as in Test Example 1 were used unless otherwise specified.
Human fibronectin was prepared at 14 μg/mL with PBS and then dispensed at 50 μL/well to a 96-well plate. The plate was left standing at room temperature for 1 hour or longer, followed by the removal of the fibronectin solution. The plate was washed with PBS and used as a coated plate.
A test compound dissolved in DMSO was added to RPMI medium 1640 (manufactured by Thermo Fisher Scientific, Inc., 11875) containing 1% FBS and 1% penicillin/streptomycin/amphotericin B to prepare a medium containing the test compound having a concentration of two times the final concentration. This medium was added at 100 μL/well to the coated plate. TFK-1 cells (Cell Resource Center for Biomedical Research, Institute of Development, Aging and Cancer, Tohoku University) cultured in RPMI medium 1640 containing 10% FBS and 1% penicillin/streptomycin/amphotericin B were suspended in RPMI medium 1640 containing 1% FBS and 1% penicillin/streptomycin/amphotericin B to prepare a cell suspension of 1×10^6 cells/mL. The prepared cell suspension was further added at 100 μL/well and cultured for 2 days in a 5% CO2 incubator (37° C.).
Phosphorylated SMAD3 in the cells thus cultured for 2 days was measured using Phospho-SMAD3 (Ser423/425) cellular kit (manufactured by cisbio, 63ADK025), and a DeltaF value was calculated according to the calculation expression of the kit. Inhibition when 10 μM LY364947 (FUJIFILM Wako Pure Chemical Corp., 123-05981) was added instead of the test compound was defined as 100% inhibition, and inhibition when DMSO was added instead was defined as 0% inhibition. The rate of inhibition of phosphorylated SMAD3 by the test compound was calculated according to the following expression.
Rate of inhibition of phosphorylated SMAD3 (%)=[1−{(DeltaF value in the case of adding the test compound)−(DeltaF value in the case of adding 10 μM LY364947)}/{(DeltaF value in the case of adding DMSO)−(DeltaF value in the case of adding 10 μM LY364947)}]×100
An IC50 value was calculated from the rate of inhibition of phosphorylated SMAD3 by the test compound. A: IC50<10 nM, B: 10 nM≤IC50<50 nM, C: 50 nM≤IC50<100 nM, or D: IC50≥100 nM.

Row | Structure (SMILES) | Papp A→B at 90 min, 10 μM [1] [×10⁻⁶ cm/s] | IC50 [2] [nM]
1 | COc1ccc([C@H](CC(=O)O)NC(=O)CNC(=O)c2cc(NC3=NCC(F)CN3)c3cn[nH]c3c2)cc1Br (stereo partly drawn) [Example 16-(b), (3S)-3-(3-bromo-4-methoxyphenyl)-3-(2-(4-((5-fluoro-1,4,5,6-tetrahydropyrimidin-2-yl)amino)-1H-indazole-6-carboxamido)acetamido)propanoic acid] | > 1 | 10 to 50
2 | O=C(O)C[C@H](NC(=O)CNC(=O)c1cc(NC2=NCC(F)CN2)c2cn[nH]c2c1)c1cc(Cl)cc(Cl)c1 (stereo partly drawn) [Example 17-(b), (3S)-3-(3,5-dichlorophenyl)-3-(2-(4-((5-fluoro-1,4,5,6-tetrahydropyrimidin-2-yl)amino)-1H-indazole-6-carboxamido)acetamido)propanoic acid] | > 1 | < 10
3 | O=C(O)C[C@H](NC(=O)CNC(=O)c1cc(NC2=NCC(F)CN2)c2cn[nH]c2c1)c1cc(Cl)cc(Br)c1 (stereo partly drawn) [Example 18-(b), (3S)-3-(3-bromo-5-chlorophenyl)-3-(2-(4-((5-fluoro-1,4,5,6-tetrahydropyrimidin-2-yl)amino)-1H-indazole-6-carboxamido)acetamido)propanoic acid] | > 1 | 10 to 50
4 | O=C(O)C[C@H](NC(=O)CNC(=O)c1cc(NC2=NCC(F)CN2)c2cn[nH]c2c1)c1cc(Br)cc(Br)c1 (stereo partly drawn) [Example 19-(b), (3S)-3-(3,5-dibromophenyl)-3-(2-(4-((5-fluoro-1,4,5,6-tetrahydropyrimidin-2-yl)amino)-1H-indazole-6-carboxamido)acetamido)propanoic acid] | > 1 | < 10
5 | O=C(O)C[C@H](NC(=O)CNC(=O)c1cc(NC2=NCC(F)CN2)c2cn[nH]c2c1)c1cc(Br)cc(I)c1 (stereo partly drawn) [Example 20-(b), (3S)-3-(3-bromo-5-iodophenyl)-3-(2-(4-((5-fluoro-1,4,5,6-tetrahydropyrimidin-2-yl)amino)-1H-indazole-6-carboxamido)acetamido)propanoic acid] | > 1 | < 10
6 | O=C(O)C[C@H](NC(=O)CNC(=O)c1cc(NC2=NCC(F)CN2)c2cn[nH]c2c1)c1cc(Cl)cc(I)c1 (stereo partly drawn) [Example 21-(b), (3S)-3-(3-chloro-5-iodophenyl)-3-(2-(4-((5-fluoro-1,4,5,6-tetrahydropyrimidin-2-yl)amino)-1H-indazole-6-carboxamido)acetamido)propanoic acid] | > 1 | < 10
7 | O=C(O)C[C@H](NC(=O)CNC(=O)c1cc(NC2=NCC(F)CN2)c2cn[nH]c2c1)c1cc(Cl)ccc1F (stereo partly drawn) [Example 22-(b), (3S)-3-(5-chloro-2-fluorophenyl)-3-(2-(4-((5-fluoro-1,4,5,6-tetrahydropyrimidin-2-yl)amino)-1H-indazole-6-carboxamido)acetamido)propanoic acid] | > 1 | 10 to 50
8 | O=C(O)C[C@H](NC(=O)CNC(=O)c1cc(NC2=NCC(F)CN2)c2cn[nH]c2c1)c1cc(Br)ccc1F (stereo partly drawn) [Example 23-(b), (3S)-3-(5-bromo-2-fluorophenyl)-3-(2-(4-((5-fluoro-1,4,5,6-tetrahydropyrimidin-2-yl)amino)-1H-indazole-6-carboxamido)acetamido)propanoic acid] | > 1 | 10 to 50
9 | O=C(O)C[C@H](NC(=O)CNC(=O)c1cc(NC2=NCC(F)CN2)c2cn[nH]c2c1)c1cc(OC(F)F)cc(C(F)(F)F)c1 (stereo partly drawn) [Example 24-(b), (3S)-3-(3-(difluoromethoxy)-5-(trifluoromethyl)phenyl)-3-(2-(4-((5-fluoro-1,4,5,6-tetrahydropyrimidin-2-yl)amino)-1H-indazole-6-carboxamido)acetamido)propanoic acid] | 0.5 to 1 | < 10
10 | O=C(O)C[C@H](NC(=O)CNC(=O)c1cc(NC2=NCC(F)CN2)c2cn[nH]c2c1)c1cc(Cl)cc(OC(F)F)c1 (stereo partly drawn) [Example 25-(b), (3S)-3-(3-chloro-5-(difluoromethoxy)phenyl)-3-(2-(4-((5-fluoro-1,4,5,6-tetrahydropyrimidin-2-yl)amino)-1H-indazole-6-carboxamido)acetamido)propanoic acid] | > 1 | < 10
11 | O=C(O)C[C@H](NC(=O)CNC(=O)c1cc(NC2=NCC(F)CN2)c2cn[nH]c2c1)c1cc(Br)cc(OC(F)F)c1 (stereo partly drawn) [Example 26-(b), (3S)-3-(3-bromo-5-(difluoromethoxy)phenyl)-3-(2-(4-((5-fluoro-1,4,5,6-tetrahydropyrimidin-2-yl)amino)-1H-indazole-6-carboxamido)acetamido)propanoic acid] | > 1 | < 10
12 | O=C(O)C[C@H](NC(=O)CNC(=O)c1cc(NC2=NCC(F)CN2)c2cn[nH]c2c1)c1ccc(F)c(OC(F)F)c1 (stereo partly drawn) [Example 27-(b), (3S)-3-(3-(difluoromethoxy)-4-fluorophenyl)-3-(2-(4-((5-fluoro-1,4,5,6-tetrahydropyrimidin-2-yl)amino)-1H-indazole-6-carboxamido)acetamido)propanoic acid] | > 1 | < 10
13 | O=C(O)C[C@H](NC(=O)CNC(=O)c1cc(NC2=NCC(F)CN2)c2cn[nH]c2c1)c1cc(OC(F)F)ccc1F (stereo partly drawn) [Example 28-(b), (3S)-3-(5-(difluoromethoxy)-2-fluorophenyl)-3-(2-(4-((5-fluoro-1,4,5,6-tetrahydropyrimidin-2-yl)amino)-1H-indazole-6-carboxamido)acetamido)propanoic acid] | > 1 | 10 to 50
14 | O=C(O)C[C@H](NC(=O)CNC(=O)c1cc(NC2=NCC(F)CN2)c2cn[nH]c2c1)c1cc(OC(F)F)cc(-n2cccn2)c1 (stereo partly drawn) [Example 29-(b), (3S)-3-(3-(difluoromethoxy)-5-(1H-pyrazol-1-yl)phenyl)-3-(2-(4-((5-fluoro-1,4,5,6-tetrahydropyrimidin-2-yl)amino)-1H-indazole-6-carboxamido)acetamido)propanoic acid] | 0.1 to 0.5 | < 10
15 | O=C(O)C[C@H](NC(=O)CNC(=O)c1cc(NC2=NCC(F)CN2)c2cn[nH]c2c1)c1cc(OC(F)F)cc(OC(F)F)c1 (stereo partly drawn) [Example 30-(b), (3S)-3-(3,5-bis(difluoromethoxy)phenyl)-3-(2-(4-((5-fluoro-1,4,5,6-tetrahydropyrimidin-2-yl)amino)-1H-indazole-6-carboxamido)acetamido)propanoic acid] | 0.5 to 1 | < 10
16 | O=C(O)C[C@H](NC(=O)CNC(=O)c1cc(NC2=NCC(F)CN2)c2cn[nH]c2c1)c1cc(Cl)cc(OC(F)(F)F)c1 (stereo partly drawn) [Example 31-(b), (3S)-3-(3-chloro-5-(trifluoromethoxy)phenyl)-3-(2-(4-((5-fluoro-1,4,5,6-tetrahydropyrimidin-2-yl)amino)-1H-indazole-6-carboxamido)acetamido)propanoic acid] | > 1 | < 10
